US7163952B2, “Azole compound and medicinal use thereof” (Japan Tobacco Inc., priority 2001, dated 2007)

melting point	SMILES
230 °C (dec.)	O=C(O)c1ccc(COc2cc(C(=O)O)ccc2Nc2nc(-c3ccc(OCc4ccc(C5CCCCC5)cc4)cc3)cs2)cc1 [Example 74, 3-(4-carboxybenzyloxy)-4-(4-(4-(4-cyclohexylbenzyloxy)phenyl)-2-thiazolylamino)benzoic acid]
180 to 181 °C	CC(C)N(Cc1ccc(C(=O)O)cc1)c1nc(-c2ccc(OCc3ccc(Cl)c(Cl)c3)cc2)cs1 [Example 77, 4-((N-(4-(4-(3,4-dichlorobenzyloxy)phenyl)-2-thiazolyl)-N-isopropylamino)methyl)benzoic acid]
215 to 216 °C	CC(C)N(c1ccc(-c2nnn[nH]2)cc1)c1nc(-c2ccc(OCc3ccc(C4CCCCC4)cc3)cc2)cs1 [Example 78, N-(4-(4-(4-cyclohexylbenzyloxy)phenyl)-2-thiazolyl)-N-isopropyl-(4-(1H-tetrazol-5-yl)phenyl)amine]
238 to 239 °C	CC(C)N(Cc1ccc(-c2nnn[nH]2)cc1)c1nc(-c2ccc(OCc3ccc(C4CCCCC4)cc3)cc2)cs1 [Example 79, N-(4-(4-(4-cyclohexylbenzyloxy)phenyl)-2-thiazolyl)-N-isopropyl-(4-(1H-tetrazol-5-yl)benzyl)amine]
221 to 222 °C	CC(C)N(Cc1cccc(-c2nnn[nH]2)c1)c1nc(-c2ccc(OCc3ccc(C4CCCCC4)cc3)cc2)cs1 [Example 80, N-(4-(4-(4-cyclohexylbenzyloxy)phenyl)-2-thiazolyl)-N-isopropyl-(3-(1H-tetrazol-5-yl)benzyl)amine]
196 to 197 °C	CC(C)N(Cc1cccc(C(=O)O)c1)c1nc(-c2ccc(OCc3ccc(C4CCCCC4)cc3)cc2)cs1 [Example 87, 3-((N-(4-(4-(4-cyclohexylbenzyloxy)phenyl)-2-thiazolyl)-N-isopropylamino)methyl)benzoic acid]
259 to 261 °C	CC(C)N(Cc1ccccc1C(=O)O)c1nc(-c2ccc(OCc3ccc(C4CCCCC4)cc3)cc2)cs1 [Example 88, 2-((N-(4-(4-(4-cyclohexylbenzyloxy)phenyl)-2-thiazolyl)-N-isopropylamino)methyl)benzoic acid]
230 °C (dec.)	CN(c1ccc(C(=O)O)cc1)c1nc(-c2ccc(OCc3ccc(Cl)c(Cl)c3)cc2)cs1 [Example 89, 4-(N-(4-(4-(3,4-dichlorobenzyloxy)phenyl)-2-thiazolyl)-N-methylamino)benzoic acid]
170 to 172 °C	CC(C)(c1ccc(C(=O)O)cc1)c1nc(-c2ccc(OCc3ccc(Cl)c(Cl)c3)cc2)cs1 [Example 90, 4-(1-(4-(4-(3,4-dichlorobenzyloxy)phenyl)-2-thiazolyl)-1-methylethyl)benzoic acid]
248 to 251 °C	O=C(O)c1ccc(C2(c3nc(-c4ccc(OCc5ccc(C6CCCCC6)cc5)cc4)cs3)CCCC2)cc1 [Example 91, 4-(1-(4-(4-(4-cyclohexylbenzyloxy)phenyl)-2-thiazolyl)cyclopentyl)benzoic acid]
230 °C (dec.)	CC(C)(c1ccc(C(=O)O)cc1)c1nc(-c2ccc(OCc3ccc(-c4ccccc4)cc3)cc2)cs1 [Example 92, 4-(1-(4-(4-(4-biphenylylmethoxy)phenyl)-2-thiazolyl)-1-methylethyl)benzoic acid]
168 to 171 °C	O=C(O)c1ccc(C2(c3nc(-c4ccc(OCc5ccc(Cl)c(Cl)c5)cc4)cs3)CCCCC2)cc1 [Example 93, 4-(1-(4-(4-(3,4-dichlorobenzyloxy)phenyl)-2-thiazolyl)cyclohexyl)benzoic acid]
230 °C (dec.)	O=C(O)c1ccc(Nc2nc(-c3ccc(OCc4ccc(Cl)c(Cl)c4)cc3)cs2)cc1 [Example 94, 4-(4-(4-(3,4-dichlorobenzyloxy)phenyl)-2-thiazolylamino)benzoic acid]
230 °C (dec.)	O=C(O)c1ccc(Nc2nc(-c3ccc(OCc4ccc(-c5ccccc5)cc4)cc3)cs2)cc1 [Example 95, 4-(4-(4-(4-biphenylylmethoxy)phenyl)-2-thiazolylamino)benzoic acid]
